The values that follow come from PMC9147024 (2022).

What all share (test): SPR
In assay [1] the test system is AAAAAA (DNA, hairpin) CCAAAAAAGCTCTCTTTTTTGG
The conditions noted are these: Na+ 100 mM, 50 mM Tris-HCl, 1 mM EDTA, pH 7.4, 25 °C.

Assay [2] relates to AATAAT (DNA, hairpin) CCAATAATGCTCTCATTATTGG
The conditions noted are these: Na+ 100 mM, 50 mM Tris-HCl, 1 mM EDTA, pH 7.4, 25 °C.

In assay [3] the test system is AAAGAAA (DNA, hairpin) CCAAAGAAAGCTCTCTTTCTTTGG
The conditions noted are these: Na+ 100 mM, 50 mM Tris-HCl, 1 mM EDTA, pH 7.4, 25 °C.

Assay [4] concerns AAAGTTT (DNA, hairpin) CCAAAGTTTGCTCTCAAACTTTGG
The conditions noted are these: Na+ 100 mM, 50 mM Tris-HCl, 1 mM EDTA, pH 7.4, 25 °C.

Assay [5] has as its system AAATTT (DNA, hairpin) CCAAATTTGCTCTCAAATTTGG
The conditions noted are these: Na+ 100 mM, 50 mM Tris-HCl, 1 mM EDTA, pH 7.4, 25 °C.

Assay [6] deals with ATATAT (DNA, hairpin) CCATATATGCTCTCATATATGG
The conditions noted are these: Na+ 100 mM, 50 mM Tris-HCl, 1 mM EDTA, pH 7.4, 25 °C.

The test system of assay [7] is AATGCAAT (DNA, hairpin) CCAATGCAATGCTCTCATTGCATTGG
The conditions noted are these: Na+ 100 mM; 50 mM Tris-HCl, 1 mM EDTA, pH 7.4, 25 °C.

Assay [8] has as its system ATAGTAT (DNA, hairpin) CCATAGTATGCTCTCATACTATGG
The conditions noted are these: Na+ 100 mM; 50 mM Tris-HCl, 1 mM EDTA, pH 7.4, 25 °C.

Assay [9] concerns AAAGCTTT (DNA, hairpin) CCAAAGCTTTGCTCTCAAAGCTTTGG
The conditions noted are these: Na+ 100 mM; 50 mM Tris-HCl, 1 mM EDTA, pH 7.4, 25 °C.

Assay [10] relates to AATGAAT (DNA, hairpin) CCAATGAATGCTCTCATTCATTGG
The conditions noted are these: Na+ 100 mM; 50 mM Tris-HCl, 1 mM EDTA, pH 7.4, 25 °C.

Assay [11] relates to AAAGCAAA (DNA, hairpin) CCAAAGCAAAGCTCTCTTTGCTTTGG
The conditions noted are these: Na+ 100 mM, 50 mM Tris-HCl, 1 mM EDTA, pH 7.4, 25 °C.

Assay [12] deals with ATAGCTAT (DNA, hairpin) CCATAGCTATGCTCTCATAGCTATGG
The conditions noted are these: Na+ 100 mM; 50 mM Tris-HCl, 1 mM EDTA, pH 7.4, 25 °C.

SMILES strings stand for the structures.

For `N=C(N)c1ccc(OCc2cccc(COc3ccc(C(=N)N)cc3)c2)cc1`, the KD in assay [1] is 261 nM; in [2] (Figure S2 prints 344 nM), 117 nM; in [4], 900 nM; in assay [5], 84 nM; in assay [6] it was 344 nM. For the same compound, in assay [3] (NB [sic]), the binding entry is recorded as “no”.

`N=C(N)c1ccc(OCc2cccc(COc3ccc(C(=N)N)cc3)n2)cc1`: the KD in [7] is recorded as 1176 nM; in [8], 68 nM; in assay [9], 58 nM; in assay [10] it was 24 nM; in assay [3] it was 19 nM; in [4] (text b19 gives 1.8 nM), 1.4 nM. Moreover, the KD turned out to be 374 nM in assay [5] and 719 nM in assay [12]. For the same compound, the binding result in assay [1] (NB [sic]), in assay [2] (NB [sic]), in assay [11] (NB [sic]) and in assay [6] (NB [sic]) was “no” in each case.

For the compound `N=C(N)c1ccc(OCc2cccc(COc3ccc(C(N)=O)cc3)n2)cc1`, the KD in assay [9] is on record as 1025 nM; in assay [10], 689 nM; in [4], 52 nM.

In the case of `c1cc(COc2ccc(C3=NCCCN3)cc2)nc(COc2ccc(C3=NCCCN3)cc2)c1`, the KD in assay [7] was 534 nM; in [1] it was 1111 nM; in assay [8], 33.6 nM; in assay [9], 27 nM; in assay [2] it was 141 nM; in assay [10], 5.7 nM. Also, the KD in assay [3] is given as 4.6 nM; in assay [4], 1 nM; in assay [5] it was 138 nM; in assay [11], 653 nM; in assay [6], 709 nM; in [12] it was 256 nM.

Consider `c1cc(COc2ccc(C3=NCCN3)cc2)nc(COc2ccc(C3=NCCN3)cc2)c1`, for which the KD in assay [8] worked out at 227 nM; in [9], 123 nM; in assay [10], 101 nM; in assay [3], 43 nM; in assay [4], 3.6 nM; in assay [12] it was 1000 nM. Also, in assay [5] (NB [sic]), the binding result is given as “no”.

As usually defined, the KD is a measure of binding affinity in units of concentration. Low values mean higher affinity, high ones lower affinity.
